The values below are quoted from earlier work in patent US20260216081A1, “METFORMIN HYDROCHLORIDE ENTERIC-COATED PREPARATION” (YAYAN (TIANJIN) BIOMEDICAL TECHNOLOGY CENTER (LIMITED …, priority 2023, published 2026).

For the data set the following is noted: background statement.

Structures are written as SMILES.

Consider `CN(C)C(=N)N=C(N)N` [metformin], for which the “Incidence of gastrointestinal adverse reactions” value is on record as 20-30%.
